The values that follow come from patent publication US20240424147A1, “PHTHALOCYANINE-LOADED MICELLES FOR THE DIRECT VISUALIZATION OF TUMORS” (THE TRUSTEES OF THE UNIVERSITY OF PENNSYLVANIA, priority 2022, published 2024).

The structures appear in SMILES notation.

The nature of data set [1]: Photothermal heating of micelles in water under 808 nm laser. The data set is classed as physicochemical. The following applies: 808 nm laser 0.75 W/cm2, 10 min. An excerpt: FIGS. 1A-1H show the preparation, characterization and uses of the PC dye micelles according to the invention. […] Infrared thermal images of water and NiPC micelle solution under laser irradiation.
(§1) A total of twenty-eight phthalocyanine and nine naphthalocyanine dyes were loaded into polymeric micelles, composed of the amphiphilic diblock copolymer PEGPCL, via oil-in-water emulsions (FIGS. 16A, 16B, 16C). The nanoparticles were characterized by UV-absorption spectroscopy and dynamic light scattering. The photothermal heating potential and photothermal stability of nanoparticles were assessed by irradiating samples using an 808 nm laser for 10 minutes at 0.75 W. Photoacoustic imaging signal was assessed by loading micelles into a phantom submerged in water. The top 5 naphthalocyanines and top 4 phthalocyanines, based on PA and heating properties, were used for in vitro and in vivo studies. The cytotoxicity and photocytotoxicity of the various micelles were assessed with ovarian cancer ID8-luciferase cells and breast cancer 4T1 cells using an MTS cell proliferation assay.
Pc and Nc-loaded micelles (9.4 uM dye concentration) and controls (empty micelles and water) were prepared and then irradiated at 808 nm (0.75 W/cm2) continuously for 10 min; heating of each sample was measured as a function of time. (FIG. 21)

Data set [2] is described as follows: Photothermal stability, repeated heating and cooling cycles. It is filed as physicochemical. The following applies: three 10-min heating/cooling cycles, 808 nm, 9.4 uM. The protocol: as §1
Various Pc and Nc-loaded micelles (9.4 uM) were heated multiple times, using a laser (0.75 W/cm2), in 10-min increments. (FIG. 22) The samples were allowed to cool to room temperature between successive rounds.

The conditions of data set [3]: free dye; cited from earlier work.
The subject of data set [4] is 4T1 triple-negative breast flank tumors. The data set can be described thus: Direct visualization of 4T1 flank tumors after injection of micelles (SBR by ImageJ). The data set is classed as in vivo, BALB/c mice. The following applies: 10 mg/kg intravenous (retro-orbital), 24 h where stated. The protocol: Photographs were quantified using ImageJ. Normalized signal-to-background (SBR) measurements were made using the tumor (i.e., the intensity of the blue color) and its surrounding tissue as background after 24 h of PCs loaded micelles (10 mg/kg) and MB (10 mg/kg) intravenous (retro-orbital) injection (n=3).
To identify the PC-loaded micelle formulation that is best able to differentiate tumors from surrounding healthy tissues via direct visualization, BALB/c mice bearing syngeneic 4T1 triple-negative breast flank tumors were injected intravenously with the various micelle formulations (10 mg/kg based on the dye concentration, 24 h before evaluation). […] Normalized signal-to-background (SBR) measurements were calculated in ImageJ using the intensity of the blue color within the tumor and its surrounding tissue, respectively.
4T1 tumor cells (2×10^6 cells in 100 ul) were implanted in the right flank of BALB/c mice (aged 6 weeks). […]
To assess blue nanoparticle accumulation in the breast and spontaneous colorectal mice model, tumors were evaluated visually, and normalized signal-to-background (SBR) was quantitated for each tumor relative to the surrounding tissue by measuring the intensity of blue-green colors via ImageJ. […] Tissues were placed in microscope glass slides, imaged fluorescence in the Cy5 filter (excitation 628-40 nm, emission 692-40 nm), and analyzed via ImageJ. […]

A short description of data set [5]: PCs nanoparticles retention study: dialysis against 20 mM sodium cholate. The data set is classed as physicochemical. The following applies: 24 h, in words. The protocol:
100 μL of PCs nanoparticles was diluted in 3 mL of 20 mM sodium cholate solution. Dialysis was performed with dialysis tubing (12,000-14,000 MWCO, Fisher) into 500 mL of 20 mM sodium cholate buffer at room temperature. The buffer was changed after 4 hours. The absorbance of the solutions was recorded before and after (24 hours) dialysis to determine dye retention percentage. […] Methylene blue (MB) is the only water-soluble blue dye that is used in this study.
PCs nanoparticles were synthesized using amphiphilic diblock copolymer (PEG-PCL) (FIG. 1A, phthalocyanine dyes used in this study are shown in FIGS. 4A-4F, see methods in Example 1). Due to the hydrophobic nature of PCs, they tend to aggregate in the aqueous medium (intermolecular interaction (π-π stacking)). […] The size of nanoparticles was determined with dynamic light scattering (DLS). […] The release of the PCs from PCs loaded micelles was assessed in sodium cholate buffer by monitoring leakage of PCs dyes as a function of time. […]
100 μL of PCs nanoparticles was diluted in 3 mL of 20 mM sodium cholate solution. […] The absorbance of the solutions was recorded before and after (24 hours) dialysis to determine dye retention percentage.

For the molecule `CCCCOc1c2c(c(OCCCC)c3ccccc13)-c1nc-2nc2[n-]c(nc3nc(nc4[n-]c(n1)c1c(OCCCC)c5ccccc5c(OCCCC)c41)-c1c-3c(OCCCC)c3ccccc3c1OCCCC)c1c(OCCCC)c3ccccc3c(OCCCC)c21.[Cu+2]` [CuNc Octa, Copper(II) 5,9,14,18,23,27,32,36-octabutoxy-2,3-naphthalocyanine], the “PTT performance compared with other dyes” value in data set [1] is reported as “outperforms all previously tested Pc/Nc dyes for PTT”.
Regarding `CC1(C)C(/C=C/C=C/C=C/C=C2\N(CCCCS(=O)(=O)O)c3ccc4ccccc4c3C2(C)C)=[N+](CCCCS(=O)(=O)[O-])c2ccc3ccccc3c21` [ICG, indocyanine green], the “heating ability after repeated irradiation” value in data set [2] was “lost its ability to heat”. For the same molecule, in data set [3], the clearance upon injection result is “cleared within minutes upon injection”.
On to `CN(C)c1ccc2nc3ccc(=[N+](C)C)cc-3sc2c1` [MB, Methylene blue], for which, in data set [4], the “tumor contrast / dye accumulation by direct visualization” value was “no accumulation was observed”. For the same molecule, in data set [5], the “release from the dialysis tubing” value was “released entirely”. In addition, the clearance upon injection entry in data set [3] is “cleared within minutes upon injection”.
